Source: patent US10301263B2, “Anticonvulsant compound” (Royal Holloway and Bedford New College, priority 2014, dated 2019)

How the values were obtained:
AMPA receptor GluA2/3 = target: T1, AMPA receptor GluA2/3 (Homo sapiens, UniProt P42262+P42263); experiment: Electrophysiology of Xenopus laevis oocytes expressing GluA2/3; assay type: cell-based; settings: for reduction of AMPA-R generated current in comparison to decanoic acid / reduction of AMPA-R generated current in comparison to the control / reduction of AMPA-R generated current in comparison to 4-BCCA: GluA2/3, 1 mM; for reduction of AMPA-R generated current in comparison to decanoic acid: P<0.01 for #181, #182, #184, P<0.001 for #176, #185; for reduction of AMPA-R generated current in comparison to the control: P<0.05 for #175, #177, P<0.001 for the others; for reduction of AMPA-R generated current in comparison to 4-BCCA: P<0.05 for #181, #184, P<0.01 for #182, P<0.001 for #176, #185; for inhibition of AMPA receptors (subunit GluA2/3) compared to decanoic acid: dose curve vs decanoic acid
T1 construct: expressed in transfected cells; host or cells: Xenopus laevis oocytes injected with cRNA
Method: (§1) The AMPA receptor (flip isoform) cDNAs inserted in a SP6 polymerase expression vector (pSP6T) were a generous gift from Prof Ralf Schoepfer (NPP, UCL). RNA was transcribed in vitro from Mlu I linearized transcripts using the SP6 Promega RiboMax RNA synthesis kit (Madison, Wis.) according to manufacturer's protocols except for the addition of 0.75 mM capping nucleotide m7G(5′)ppp(5′)G (Promega, Madison, Wis.) and 1.6 mM GTP. cRNA concentrations and integrity were estimated by the intensity of fluorescence bands in RNA denaturating gels. AMPA receptor cRNAs were mixed in a nominal 1:1 ratio and approximately 5 ng was injected per oocyte.
Xenopus laevis oocytes were purchased from the European Xenopus Resource Centre, University of Portsmouth. Stage V to VI oocytes were mechanically dissected and then subjected to gentle shaking for approximately 30-50 min at room temperature with modified Barth's solution (in mM): NaCl 88, KCl 1, NaHCO3 2.4, MgCl2 0.82, CaCl2 0.77, Tris-Cl 15, adjusted to pH 7.4 with NaOH (Sigma-Aldrich, UK), supplemented with 50 IU/ml penicillin and 50 μg/ml streptomycin (Invitrogen, UK) and 50 μg/ml tetracycline (Sigma-Aldrich, UK) and 1% collagenase (type 1A). Healthy oocytes were manually defolliculated and the injections of cRNA for homomeric subunits alone (GluA1), or heteromeric mixtures of two subunits together (GluA2/GluA3) were made using an automated Drummond Nanoinject II injector (Broomall, Pa.). The oocytes were then incubated at 17° C. in modified Barth's solution for at least 48 hours before use in electrophysiological recordings.
Experiments were performed at room temperature (approximately 21-23° C.). An oocyte was placed in a recording chamber (0.3-0.5 ml volume) and perfused with ND96 solution (96 mM NaCl, 2 mM KCl, 1.8 mM CaCl2, 1 mM MgCl2, 5 mM HEPES, with pH adjusted to 7.5). Current and voltage electrodes were filled with 300 mM KCl and made from thin-walled borosilicate glass (GC150TF-7.5, Harvard Apparatus, Kent, UK) using a PC-10 electrode puller (Narashige Instruments, Japan) and had resistances of 0.5-2 MΩ. Oocytes were voltage-clamped to a holding potential of −50 mV or −60 mV using a Turbo TEC-03 amplifier (npi electronics, Tamm, Germany). Compounds were dissolved in distilled water or DMSO and dissolved in bathing solution to achieve their final concentrations during experiments, and were applied under gravity flow during the experiment by using a multi-valve perfusion system (VC3-8C, ALA Scientific Instruments, Farmingdale, N.Y.). The bath solutions were perfused at a rate of 10 ml/min. Recordings were filtered at 20 Hz and digitized at 100 Hz (Digidata 1322A, Molecular Devices, Sunnyvale, Calif.) before recording to computer hard disk. Data acquisition was performed using the Windows PC based programme, WinEDR v3.0.6 (John Dempster, University of Strathclyde, UK).
The data from the electrophysiology experiments were analyzed using GraphPad Prism software (GraphPad software, San Diego Calif., USA) and SPSS (IBM United Kingdom Limited). Statistical analysis was performed using ANOVA with Dunnett's or Tukey post hoc test, pair t-test or un-pair t-test. For the behavior experiment, the nonparametric test, Mann-Whitney test were used. Differences were considered as significant at P<0.05. […]

AMPA receptor GluA1/2 = target: T2, AMPA receptor GluA1/2 (Homo sapiens, UniProt P42261+P42262); experiment: Electrophysiology of Xenopus laevis oocytes expressing GluA1/2; assay type: cell-based; settings: IC50 comparison, FIG. 2C
T2 construct: expressed in transfected cells; host or cells: Xenopus laevis oocytes injected with cRNA
Method: as §1
Xenopus laevis oocytes were purchased from the European Xenopus Resource Centre, University of Portsmouth. Stage V to VI oocytes were mechanically dissected and then subjected to gentle shaking for approximately 30-50 min at room temperature with modified Barth's solution (in mM): NaCl 88, KCl 1, NaHCO3 2.4, MgCl2 0.82, CaCl2 0.77, Tris-Cl 15, adjusted to pH 7.4 with NaOH (Sigma-Aldrich, UK), supplemented with 50 IU/ml penicillin and 50 μg/ml streptomycin (Invitrogen, UK) and 50 μg/ml tetracycline (Sigma-Aldrich, UK) and 1% collagenase (type 1A). […]
The data from the electrophysiology experiments were analyzed using GraphPad Prism software (GraphPad software, San Diego Calif., USA) and SPSS (IBM United Kingdom Limited). […]

T1 sequence (P42262 22-883 isoform P42262-2 limits assumed): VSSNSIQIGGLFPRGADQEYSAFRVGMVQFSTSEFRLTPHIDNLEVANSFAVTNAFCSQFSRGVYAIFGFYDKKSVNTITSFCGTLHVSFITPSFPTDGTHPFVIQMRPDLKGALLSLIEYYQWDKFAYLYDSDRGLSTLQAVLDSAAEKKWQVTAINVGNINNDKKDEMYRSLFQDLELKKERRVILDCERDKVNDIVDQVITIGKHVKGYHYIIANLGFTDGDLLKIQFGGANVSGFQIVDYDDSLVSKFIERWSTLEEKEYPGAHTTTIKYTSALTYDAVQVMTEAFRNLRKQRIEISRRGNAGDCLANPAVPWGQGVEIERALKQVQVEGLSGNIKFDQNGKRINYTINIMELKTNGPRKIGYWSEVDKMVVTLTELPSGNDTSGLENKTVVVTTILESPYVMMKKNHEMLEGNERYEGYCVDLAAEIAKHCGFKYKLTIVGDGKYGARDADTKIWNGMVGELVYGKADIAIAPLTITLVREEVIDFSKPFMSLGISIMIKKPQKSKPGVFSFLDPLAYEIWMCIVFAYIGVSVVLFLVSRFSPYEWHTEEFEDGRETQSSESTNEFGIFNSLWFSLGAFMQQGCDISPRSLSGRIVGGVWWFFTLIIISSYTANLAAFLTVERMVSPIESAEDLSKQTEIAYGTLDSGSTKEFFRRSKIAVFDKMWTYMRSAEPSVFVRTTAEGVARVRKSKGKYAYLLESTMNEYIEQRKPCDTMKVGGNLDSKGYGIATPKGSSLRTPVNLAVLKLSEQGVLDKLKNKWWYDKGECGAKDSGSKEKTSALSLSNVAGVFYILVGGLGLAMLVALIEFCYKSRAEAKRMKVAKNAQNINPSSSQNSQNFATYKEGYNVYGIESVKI
T1 sequence (P42263 29-894 isoform P42263-2 limits assumed): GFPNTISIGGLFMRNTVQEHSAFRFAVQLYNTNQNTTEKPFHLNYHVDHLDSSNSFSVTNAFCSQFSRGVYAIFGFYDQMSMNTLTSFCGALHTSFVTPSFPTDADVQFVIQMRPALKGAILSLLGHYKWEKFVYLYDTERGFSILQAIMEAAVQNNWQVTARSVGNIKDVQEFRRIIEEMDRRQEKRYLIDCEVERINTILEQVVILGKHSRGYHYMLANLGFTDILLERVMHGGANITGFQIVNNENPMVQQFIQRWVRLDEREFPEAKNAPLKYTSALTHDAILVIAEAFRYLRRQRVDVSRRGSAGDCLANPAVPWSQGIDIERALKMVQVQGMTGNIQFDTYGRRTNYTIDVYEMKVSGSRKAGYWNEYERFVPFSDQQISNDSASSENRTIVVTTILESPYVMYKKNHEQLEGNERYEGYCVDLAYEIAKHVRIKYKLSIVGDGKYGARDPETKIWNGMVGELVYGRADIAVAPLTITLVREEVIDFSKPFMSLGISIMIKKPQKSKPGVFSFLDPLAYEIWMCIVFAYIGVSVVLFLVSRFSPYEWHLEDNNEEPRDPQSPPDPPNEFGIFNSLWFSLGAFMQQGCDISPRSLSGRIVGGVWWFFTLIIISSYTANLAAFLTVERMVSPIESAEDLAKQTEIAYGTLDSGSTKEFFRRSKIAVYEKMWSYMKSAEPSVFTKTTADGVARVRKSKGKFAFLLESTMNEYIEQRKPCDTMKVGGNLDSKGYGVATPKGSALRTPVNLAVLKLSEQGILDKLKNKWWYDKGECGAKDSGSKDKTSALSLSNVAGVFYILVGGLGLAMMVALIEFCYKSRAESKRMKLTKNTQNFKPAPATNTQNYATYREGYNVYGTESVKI
T2 sequence (P42261 19-906 isoform P42261-2 limits assumed): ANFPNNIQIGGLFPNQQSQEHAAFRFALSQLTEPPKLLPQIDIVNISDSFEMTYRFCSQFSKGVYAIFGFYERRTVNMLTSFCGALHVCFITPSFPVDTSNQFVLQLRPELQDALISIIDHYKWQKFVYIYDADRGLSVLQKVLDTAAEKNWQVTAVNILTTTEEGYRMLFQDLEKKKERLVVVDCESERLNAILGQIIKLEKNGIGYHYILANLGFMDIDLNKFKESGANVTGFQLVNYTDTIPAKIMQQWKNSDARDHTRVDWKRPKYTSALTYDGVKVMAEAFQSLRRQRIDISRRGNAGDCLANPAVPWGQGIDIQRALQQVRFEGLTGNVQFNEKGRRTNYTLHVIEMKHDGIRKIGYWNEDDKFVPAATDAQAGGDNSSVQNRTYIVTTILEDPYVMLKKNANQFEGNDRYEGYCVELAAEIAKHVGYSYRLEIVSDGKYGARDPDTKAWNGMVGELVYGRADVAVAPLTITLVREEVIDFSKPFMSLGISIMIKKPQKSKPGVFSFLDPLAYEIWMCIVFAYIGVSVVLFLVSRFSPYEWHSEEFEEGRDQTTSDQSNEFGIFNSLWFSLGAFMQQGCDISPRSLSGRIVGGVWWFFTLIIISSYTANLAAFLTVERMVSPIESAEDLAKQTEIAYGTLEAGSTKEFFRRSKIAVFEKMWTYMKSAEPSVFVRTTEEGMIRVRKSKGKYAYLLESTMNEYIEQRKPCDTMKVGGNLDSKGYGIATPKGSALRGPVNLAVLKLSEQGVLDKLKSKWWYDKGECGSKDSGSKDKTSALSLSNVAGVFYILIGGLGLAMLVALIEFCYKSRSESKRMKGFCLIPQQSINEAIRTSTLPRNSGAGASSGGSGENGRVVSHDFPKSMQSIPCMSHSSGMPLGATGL
T2 sequence (P42262 22-883 isoform P42262-2 limits assumed): as the sequence (P42262 22-883 isoform P42262-2 limits assumed) above

reduction of AMPA-R generated current in comparison to decanoic acid (AMPA receptor GluA2/3)	reduction of AMPA-R generated current in comparison to the control (AMPA receptor GluA2/3)	reduction of AMPA-R generated current in comparison to 4-BCCA (AMPA receptor GluA2/3)	inhibition of AMPA receptors (subunit GluA2/3) compared to decanoic acid (AMPA receptor GluA2/3)	inhibitory effect on AMPA receptors consisting of GluA1/2 subunits compared to decanoic acid (AMPA receptor GluA1/2)	SMILES
–	significant reduction	–	–	–	CCCCC1CCC(C(=O)O)NC1 (stereo not shown) [compound 178, 5-butylpiperidine-2-carboxylic acid]
significant reduction	significant reduction	significant reduction	–	–	CC(C)CCC1CCC(C(=O)O)CC1 (stereo not shown) [compound 181, 4-(3-methylbutyl)cyclohexanecarboxylic acid]
significant reduction	significant reduction	significant reduction	–	–	CCC(C)CC1CCC(C(=O)O)CC1 (stereo not shown) [compound 184, 4-(2-methylbutyl)cyclohexanecarboxylic acid]
–	significant reduction	–	–	–	CC(C)CCCC1CCC(CC(=O)O)CC1 (stereo not shown) [compound 172, [4-(4-methylpentyl)cyclohexyl]acetic acid]
–	significant reduction	–	–	–	CCOCC1CCC(C(=O)O)CC1 (stereo not shown) [compound 177, 4-(ethoxymethyl)cyclohexancarboxylic acid]
–	significant reduction	–	–	–	CCCOCC1CCC(CC(=O)O)CC1 (stereo not shown) [compound 175, 4-(propoxymethyl)cyclohexyl acetic acid]
–	–	–	more potent inhibition	enhanced inhibitory effect	CCCCCC1CCC(CC(=O)O)CC1 (racemic) [Compound 4-PCEA, 2-(4-pentylcyclohexyl)ethanoic acid]

Continued, molecule first:

SMILES	reduction of AMPA-R generated current in comparison to decanoic acid (AMPA receptor GluA2/3)	reduction of AMPA-R generated current in comparison to the control (AMPA receptor GluA2/3)	reduction of AMPA-R generated current in comparison to 4-BCCA (AMPA receptor GluA2/3)	inhibition of AMPA receptors (subunit GluA2/3) compared to decanoic acid (AMPA receptor GluA2/3)	inhibitory effect on AMPA receptors consisting of GluA1/2 subunits compared to decanoic acid (AMPA receptor GluA1/2)
CCCC(C)CC1CCC(CC(=O)O)CC1 (stereo not shown) [compound 185, [4-(2-methylpentyl)cyclohexyl]acetic acid]	significant reduction	significant reduction	significant reduction	–	–
CCCOC1CCC(C(=O)O)CC1 (stereo not shown) [compound 180, 4-propoxycyclohexanecarboxylic acid]	–	significant reduction	–	–	–
CCCCCc1ccc(CC(=O)O)cc1 [Compound 4-PPEA, 4-pentylphenylethanoic acid]	–	–	–	more potent inhibition	–
CCCCC=C1CCC(CC(=O)O)CC1 (stereo not shown) [compound 182, (4-pentylidenecyclohexyl)acetic acid]	significant reduction	significant reduction	significant reduction	–	–
CCC(C)CCC1CCC(CC(=O)O)CC1 (stereo not shown) [compound 176, [4-(3-methylpentyl)cyclohexyl]acetic acid]	significant reduction	significant reduction	significant reduction	–	–
CCNCC1CCC(CC(=O)O)CC1 (stereo not shown) [compound 179, {4-[(ethylamino)methyl]cyclohexyl}acetic acid]	–	significant reduction	–	–	–
CC/C=C/C1CCC(C(=O)O)CC1 (stereo not shown) [compound 174, 4-[(1E)-but-1-en-1-yl]cyclohexanecarboxylic acid]	–	significant reduction	–	–	–
